Reference: patent US10654837B2, “Sulphamoylaryl derivatives and use thereof as medicaments for the treatment of liver fibrosis” (Janssen Pharmaceutica NV, priority 2017, dated 2020)

Biological target: T1, 5HTR2B (Homo sapiens, UniProt P41595)
T1 construct: host or cells: human Maverick/293 cells
Test: 5HTR2B antagonist activity, calcium mobilization assay in human Maverick/293 cells (serotonin as agonist)
Assay type: cell-based
Details: intracellular calcium, emission 525 nm, read-out: Ca assay IC50
Summary of the method: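 Serum-starved (2 h) human Maverick/293 cells loaded with calcium dye for 50 min at 37 °C, then antagonist preincubated 15-30 min before serotonin challenge. Calcium fluorescence (ex 485/em 525 nm) recorded for 80 s; peak-based % inhibition fitted sigmoidally for IC50.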

T1 sequence (P41595 whole entry): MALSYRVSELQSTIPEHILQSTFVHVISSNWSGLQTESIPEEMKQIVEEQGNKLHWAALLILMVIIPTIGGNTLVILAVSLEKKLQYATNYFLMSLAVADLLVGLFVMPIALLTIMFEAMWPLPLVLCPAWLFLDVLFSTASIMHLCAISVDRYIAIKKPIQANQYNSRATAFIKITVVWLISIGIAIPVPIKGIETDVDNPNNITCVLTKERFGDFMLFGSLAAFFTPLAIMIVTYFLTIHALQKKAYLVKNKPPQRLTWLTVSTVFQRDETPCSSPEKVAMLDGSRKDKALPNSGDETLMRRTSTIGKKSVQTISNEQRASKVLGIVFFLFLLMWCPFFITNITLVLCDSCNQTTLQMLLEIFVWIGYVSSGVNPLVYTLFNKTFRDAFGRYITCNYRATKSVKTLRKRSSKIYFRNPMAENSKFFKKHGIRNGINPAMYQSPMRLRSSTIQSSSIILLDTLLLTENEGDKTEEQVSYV

Structure (SMILES)	IC50 [nM]
COc1ccc(S(=O)(=O)N[C@H]2CCOC2)cc1C(=O)Nc1ccc(F)c(C(F)(F)F)c1 [Compound 160, (S)—N-(4-Fluoro-3-(trifluoromethyl)phenyl)-2-methoxy-5-(N-(tetrahydrofuran-3-yl)sulfamoyl)benzamide]	4.6
COc1ccc(S(=O)(=O)NC2CCCC[C@H]2O)cc1C(=O)Nc1ccc(F)c(C)n1 (stereo in doubt) [Compound 28b, N-(5-Fluoro-6-methylpyridin-2-yl)-5-(N-((trans)-2-hydroxycyclohexyl)sulfamoyl)-2-methoxybenzamide]	119
COc1ccc(S(=O)(=O)N[C@H]2CCOC2)cc1C(=O)Nc1cc(F)cc(F)c1 [Compound 67, (S)—N-(3,5-Difluorophenyl)-2-methoxy-5-(N-(tetrahydrofuran-3-yl)sulfamoyl)benzamide]	8.8
COc1ccc(S(=O)(=O)NC2(C)COC2)cc1C(=O)Nc1ccc(F)c(C)c1 [Compound 9, N-(4-Fluoro-3-methylphenyl)-2-methoxy-5-(N-(3-methyloxetan-3-yl)sulfamoyl) benzamide]	2.2
COc1ccc(S(=O)(=O)NC2CC(F)(F)C2)cc1C(=O)Nc1ccc(F)c(C)c1 [Compound 1, 5-(N-(3,3-Difluorocyclobutyl)sulfamoyl)-N-(4-fluoro-3-methylphenyl)-2-methoxybenzamide]	2.3
COc1ccc(S(=O)(=O)NC2COC2)cc1C(=O)Nc1ccc(F)c(C)c1 [Compound 5, N-(4-Fluoro-3-methylphenyl)-2-methoxy-5-(N-(oxetan-3-yl)sulfamoyl) benzamide]	4.2
COc1ccc(S(=O)(=O)NC2CC[C@@H](O)C2)cc1C(=O)Nc1ccccc1Cl (stereo partly drawn) [Compound 57b, N-(2-Chlorophenyl)-5-(N-((cis)-3-hydroxycyclopentyl)sulfamoyl)-2-methoxy benzamide]	0.2
COc1ccc(S(=O)(=O)N[C@H]2C[C@@H](O)C2)cc1C(=O)Nc1cc(C)ccc1Cl [Compound 137b, N-(2-Chloro-5-methylphenyl)-5-(N-((cis)-3-hydroxycyclobutyl)sulfamoyl)-2-methoxybenzamide]	39
COc1ccc(S(=O)(=O)N[C@H]2CCOC2)cc1C(=O)Nc1ccc(F)cc1F [Compound 65, (S)—N-(2,4-Difluorophenyl)-2-methoxy-5-(N-(tetrahydrofuran-3-yl)sulfamoyl) benzamide]	0.34
COc1ccc(NS(=O)(=O)[C@H]2CCOC2)cc1C(=O)Nc1ccc(F)c(C)c1 (single isomer, unassigned) [Compound 202a, (S*)N-4-fluoro-3-methylphenyl)-2-methoxy-5-(tetrahydrofuran-3-sulfonamido)benzamide]	1
COc1ccc(S(=O)(=O)NC2CNC2)cc1C(=O)Nc1ccc(F)c(C)n1 [Compound 169, 5-(N-(Azetidin-3-yl)sulfamoyl)-N-(5-fluoro-6-methylpyridin-2-yl)-2-Methoxy benzamide]	65
COc1ccc(S(=O)(=O)N[C@H]2CCOC2)cc1C(=O)Nc1cc(F)ccc1Cl [Compound 70, (S)—N-(2-Chloro-5-fluorophenyl)-2-methoxy-5-(N-(tetrahydrofuran-3-yl)sulfamoyl)benzamide]	0.3
